Experimental data as given in patent US20250268925A1, “METHODS OF TREATING MEDICAL CONDITIONS AND INHIBITING LINE1 REVERSE TRANSCRIPTASE USING A SUBSTITUTED ADENINYL-PROPYLOXY PHOSPHONIC ACID OR RELATED COMPOUND” (ROME THERAPEUTICS, INC., priority 2021, published 2025).

Experiments:
[1] = biological target: T1, LINE1 reverse transcriptase (Homo sapiens, UniProt O00370); assay: Transient artificial-intron Cis LINE1 reporter assay; assay type: cell-based; parameters: expressed in transfected cells
Method: Intron-disrupted Firefly luciferase (FLuc) expression cassettes were generated as described by Xie, Y. et al. “Characterization of L1 retrotransposition with high-throughput dual-luciferase assays,” Nucleic Acid Res. (2011) Vol. 39, No. 3, e16. In addition, the plasmid contained an intact Renilla luciferase (RLuc) expression cassette on the vector backbone, in order to normalize transfection efficiency and measure potential cell toxicity.
HEK 293 cells were seeded in 96-well plates at 1,000 cells/well in 55 μL and grown for 24 hours. Cells were transfected with FuGeneHD (Promega) following the manufacturer's protocol. Each well received 0.133 ng plasmid, 0.4 μL FuGeneHD reagent, and 4.5 μL GlutaMAX-I-supplemented Opti-MEM I reduced-serum medium (Invitrogen). Cells were simultaneously treated with test compound serially diluted starting at 100 μM in a 3-fold dilution dose response.
Luminescence was measured using the Dual-Glo Luciferase Assay System (Promega) following the manufacturer's instructions. The ratio between FLuc and RLuc gene expression (each of which was normalized against its expression in a control well without test compound) was used to report LINE1 activity.

Type 1 Interferon = assay: Cellular assay for altering IFN production in THP1 TREX1 KO cells; assay type: cell-based; settings: THP1-Dual KO-TREX1 cells, 1 μM 5-aza-2′-deoxycytidine, five days; direction of effect per figure legend
Method: (§1) THP1-Dual™ KO-TREX1 cells were purchased from Invivogen (cat #thpd-kotrex). The THP1-Dual™ KO-TREX1 cells were cultured in RPMI 1640, 10% heat-inactivated fetal bovine serum, 25 mM HEPES, 10 μg/mL Blasticidin, and 100 μg/mL Zeocin. THP1-Dual™ KO-TREX1 cells were treated with a dose titration of test compound in the presence of 1 μM 5-aza-2′-deoxycytidine (Sigma, cat #189825). Type 1 Interferon and cell viability were assessed after five days of treatment.
Stock solution of test compound was prepared in DMSO followed by a three-fold dilution in DMSO. Additional 50× dilution was prepared in cell culture media for each dilution. 10 μL of diluted test compound was then added to a 384-well plate.
THP1-Dual™ KO-TREX1 cells were treated with 1 μM 5-aza-2′-deoxycytidine. The THP1-Dual™ KO-TREX1 cells (50 μL) were added to each well of the 384-well plate containing test compound titration at 10,000 cells/well. Cells were incubated at 37° C., 5% CO2 in a humidified incubator for five days. On day five, 20 μL of cell supernatant was transferred to a 384-well, white-walled plate, followed by addition to each well of 50 μL of QUANTI-LUC solution containing stabilizer. Luminescence was detected on a plate reader according to manufacturer's instructions. Percent inhibition of interferon was calculated using the following analysis: (Average DMSO−Sample)/(Average DMSO−Average 30 μM control reagent)*100. Percent induction of interferon was calculated using the following analysis: (Sample−Average DMSO)/(10 μM control reagent−Average DMSO)*100.

[2] = biological target: T1, LINE1 reverse transcriptase; assay: Stable artificial-intron Cis LINE1 reporter assay; assay type: cell-based; parameters: expressed in transfected cells; host or cells: HeLa Tet-On 3G (Takara, cat no 631183)
Description: A stable HeLa Tet-On 3G (Takara, cat no 631183) cell line expressing a bi-directional inducible LINE1 construct was generated as described in Xie, Y. et al. “Cell division promotes efficient retrotransposition in a stable L1 reporter cell line,” Mobile DNA (2013) 4:10. Single cell clones were screened for high Luciferase expression and the highest expression Firefly expressing clone was chosen for compound testing.
Test compounds were serially diluted in DMSO and spotted in 96-well plates. Subsequently the HeLa L1 artificial-intron reporter cells were plated into the compound-containing wells (8,000 cells/well), and the cells were induced for reporter expression with doxycycline (Sigma cat no D9891) at a final concentration of 500 ng/mL. Luminescence was measured 72 h after plating using the Dual-Glo Luciferase Assay System (Promega cat no E2940) following the manufacturer's instructions. The Firefly Luciferase activity (normalized against its activity in a control well without test compound) was used to report LINE1 activity.

[3] = CellTiter-Glo cell viability in THP1-Dual KO-TREX1 cells; assay type: cell-based; settings: human, 10 μM compound (highest dose), five days, read-out: CellTiter-Glo average inhibition (cell viability)
Method: as §1
THP1-Dual™ KO-TREX1 cells were treated with 1 μM 5-aza-2′-deoxycytidine. The THP1-Dual™ KO-TREX1 cells (50 μL) were added to each well of the 384-well plate containing test compound titration at 10,000 cells/well. Cells were incubated at 37° C., 5% CO2 in a humidified incubator for five days. […] Luminescence was detected on a plate reader according to manufacturer's instructions. […] Percent induction of interferon was calculated using the following analysis: (Sample−Average DMSO)/(10 μM control reagent−Average DMSO)*100.
The remaining cells were assessed for cell viability by adding 30 μl of CellTiter-Glo (Promega, G9683) solution to each well, and placed on a shaker for 10 minutes at room temperature. Luminescence was detected on a plate reader, according to manufacturer's instructions. Percent inhibition of cell viability using CellTiter-Glo was calculated using the following analysis. […]

[4] = biological target: T2, HERV-K reverse transcriptase (2-596)-8His protein (Homo sapiens, UniProt V9H0F6); assay: Homogeneous time-resolved fluorescence (HTRF) HERV-K RT assay; assay type: biochemical; settings: tetra(sodium) salt; 25° C., 30 minutes
T2 construct: fused on or other part: C-terminal 8His tag
T2 sequence (V9H0F6 entry or part of it): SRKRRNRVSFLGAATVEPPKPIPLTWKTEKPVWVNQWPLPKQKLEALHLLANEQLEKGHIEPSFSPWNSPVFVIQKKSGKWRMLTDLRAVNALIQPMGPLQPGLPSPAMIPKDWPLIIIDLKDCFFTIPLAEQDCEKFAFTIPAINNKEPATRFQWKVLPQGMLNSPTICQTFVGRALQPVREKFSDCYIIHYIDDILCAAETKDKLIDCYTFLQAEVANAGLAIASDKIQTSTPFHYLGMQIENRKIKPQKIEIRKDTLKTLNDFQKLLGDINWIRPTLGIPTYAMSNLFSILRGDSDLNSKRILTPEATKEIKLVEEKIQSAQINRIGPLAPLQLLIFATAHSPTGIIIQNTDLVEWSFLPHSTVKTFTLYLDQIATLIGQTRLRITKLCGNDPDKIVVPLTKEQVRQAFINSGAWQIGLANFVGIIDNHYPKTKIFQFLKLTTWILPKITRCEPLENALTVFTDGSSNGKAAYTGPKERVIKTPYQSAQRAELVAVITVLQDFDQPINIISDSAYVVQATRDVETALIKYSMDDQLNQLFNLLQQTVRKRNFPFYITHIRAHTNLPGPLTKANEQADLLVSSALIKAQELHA
Method: The HERV-K reverse transcriptase homogeneous time-resolved fluorescence (HTRF) assay was performed in a 384-well format with HERV-K reverse transcriptase (2-596)-8His protein. Baculoviruses were created using Bac-to-Bac technology (Invitrogen). pFastBac donor plasmids containing HERV-K reverse transcriptase sequence (NCBI GenBank number AAC63291.1, J. Virology (1999) Vol. 73, No. 3, pp. 2365-2375) were transformed into DH10 Bac cells following the manufacturer's instructions. Recombinant bacmids were then isolated clonally and transfected into SF9 cells with lipofectin. HERV-K reverse transcriptase was expressed in the SF9 insect cells and then purified using immobilized metal affinity chromatography (IMAC) followed by size-exclusion chromatography (SEC). […]
(§2) After incubating at 25° C. for 30 minutes, the detection reagent 20 mM EDTA with streptavidin-terbium cryptate (Cisbio Bioassay) in the PPI buffer (Cisbio Bioassay) was added, and the mixture was incubated at 25° C. for 60 minutes. At the end of the incubation, fluorescence was read at ex/em=337/485 nm and ex/em=337/520 nm on an Envision 2104 plate reader (Perkin Elmer). The fluorescence ratio at 520/485 nm was used for the calculation. […] The IC50 was calculated by fitting the compound dose inhibition curve with a 4-parameter non-linear regression equation.

[5] = biological target: T3, recombinant MBP-tagged LINE1 protein (238-1061) (Homo sapiens, UniProt O00370); assay: Homogeneous time-resolved fluorescence (HTRF) LINE1 RT assay; assay type: biochemical; settings: tetra(sodium) salt; 25° C., 60 minutes
T3 construct: recombinant MBP-tagged LINE1 protein (238-1061); made in house
Method: The LINE1 reverse transcriptase homogeneous time-resolved fluorescence (HTRF) assay was performed with recombinant MBP-tagged LINE1 protein (238-1061) (generated and purified according to procedures in Dai L. et al. BMC Biochemistry 2011; 12:18) in a 384-well format. Test compound was serially diluted in DMSO and further diluted in the assay buffer (50 mM Tris-HCl, 50 mM KCl, 10 mM MgCl2, 10 mM DTT, pH 8.1) to achieve a final DMSO concentration of 1%. The serially diluted compound was mixed with 64 ng/well of LINE1 enzyme, 5 nM of pre-annealed template/biotin-primer pair (synthesized at Generay Biotechnology), 10 nM of Fluorescein-12-dATP fluorescent probe (Perkin Elmer), and 1 μM dGTP/dCTP/dTTP (Thermo Fisher Scientific) in the assay buffer. The template/biotin-primer sequences were as follows:
as §2, with “for 60” for “for 30”, “reagent (20” for “reagent 20”, “streptavidin-terbium cryptate, Cisbio” for “streptavidin-terbium cryptate (Cisbio”, “for 30” for “for 60”

[6] = HeLa Tet-On 3G L1 reporter cells, doxycycline 500 ng/mL, 72 h, Firefly luciferase, read-out: IC50
[7] = HEK 293 cells, FLuc/RLuc ratio, transient LINE1 reporter, read-out: IC50
[8] = HEK 293 cells, transient LINE1 reporter, no detectable IC50 when tested at concentrations up to 100 μM, read-out: IC50

SMILES | changes in IFN levels (inhibition or induction of IFN) (Type 1 Interferon) | IC50 [2, 6] [nM] | other results
CC(C)OC(=O)[C@H](C)N[P@](=O)(CO[C@H](C)Cn1cnc2c(N)ncnc21)Oc1ccccc1 [Compound I-1] | inhibition of IFN | – | IC50 [1]: < 0.05 µM; IC50 [2]: < 50 nM; cytotoxicity at 5 days, 10 μM [3]: 57%
C[C@H](Cn1cnc2c(N)ncnc21)OCP(=O)(O)OP(=O)(O)OP(=O)(O)O [drawing 1228] | – | – | IC50 [4]: 20 nM
C[C@H](Cn1cnc2c(N)ncnc21)OCP(=O)(O)OP(=O)(O)OP(=O)(O)O [drawing 1227] | – | – | IC50 [5]: 71 nM
CCCCCCCCCCCCCCCCOCCCOP(=O)(O)CO[C@H](C)Cn1cnc2c(N)ncnc21 [VI-1] | induction of IFN | 50 to 500 | –
C[C@H](Cc1ccc2c(N)ncnn12)OCP(=O)(O)O [Compound V-105] | – | > 500 | –
CC(C)OC(=O)OCOP(=O)(CO[C@H](C)Cn1cnc2c(N)ncnc21)OCOC(=O)OC(C)C [Compound V-7] | – | 50 to 500 | IC50 [1, 7]: < 0.05 µM
Nc1ccn([C@@H]2CS[C@H](CO)O2)c(=O)n1 [lamivudine (3TC), lamivudine, reference compound] | – | > 500 | IC50 [1, 8]: > 100 µM
CC(C)OC(=O)[C@H](C)NP(=O)(CO[C@H](C)Cc1ccc2c(N)ncnn12)Oc1ccccc1 (some centres unmarked) [Compound I-115] | induction of IFN | 50 to 500 | –
CC(C)OC(=O)C(C)(C)N[P@](=O)(CO[C@H](C)Cn1cnc2c(N)ncnc21)Oc1ccccc1 [Compound I-20] | inhibition of IFN | < 50 | cytotoxicity at 5 days, 10 μM [3]: 65%
Cc1cn([C@H]2C[C@H](N=[N+]=[N-])[C@@H](CO)O2)c(=O)[nH]c1=O [AZT (zidovudine), zidovudine, reference compound] | – | > 500 | IC50 [1, 8]: > 100 µM
Nc1ccn([C@H]2CO[C@@H](CO)S2)c(=O)n1 [apricitabine] | – | – | IC50 [1, 8]: > 100 µM
CC(C)OC(=O)OCOP(=O)(CO[C@H](C)Cc1ccc2c(N)ncnn12)OCOC(=O)OC(C)C [Compound V-106] | – | > 500 | –
C[C@H](Cn1cnc2c(N)ncnc21)OCP(=O)(O)O [Compound V-1] | inhibition of IFN | > 500 | IC50 [1, 7]: > 0.5 µM
Nc1nc(=O)c2ncn([C@@H]3C[C@H](CO)[C@H]3CO)c2[nH]1 [lobucavir, reference compound] | – | > 500 | IC50 [1, 8]: > 100 µM
CC(C)OC(=O)C(C)(C)N[P@@](=O)(CO[C@H](C)Cn1cnc2c(N)ncnc21)Oc1ccccc1 [Compound I-21] | induction of IFN | 50 to 500 | –
